The experiment concerns 10 mm tibial defect model in rabbits. Put plainly: 10 mm tibial defect model in rabbits with calcium sulphate (Osteoset) cylinder; pQCT scans and radiographs. The experiment is classed as in vivo, NZW rabbit. Conditions: for BMC / BMD / Polar Moment / Total Bone Area: 6 weeks; for Total Bone Area: CT slice at centre of defect. From the text: The following example outlines the process by which the effects of bisphosphonates on potentiating new bone formation in a graft may be observed. In this regard, the effects on bone mineralisation and the mechanical properties are observed in a 10 mm tibial defect model in rabbits.
The present experiment uses an 8-week-old NZW rabbit model. A 10 mm gap is surgically removed from the tibiae of the rabbits. The bones are held with a M-100 external fixator.
Cylinders of calcium sulphate (Osteoset) were prepared on the day of surgery. Moulds were prepared using a combination of 1.0 ml and 3.0 ml syringes, and the Osteoset poured into the moulds in a sterile environment. The cylinders were removed from the moulds at 12 minutes, and allowed to dry in air for 90 minutes, followed by final drying in a microwave for 30 seconds. Once dry, the cylinders were formed into a standard dimension of 10 mm length, with an external diameter of 9 mm and with a 3 mm diameter internal core. The cylinders weighed 0.80.9 g. The cylinders were stored in sterile environment until required.
At the commencement of the operative procedure 0.15 ml of saline, or 0.15 ml of zoledronic acid (0.05 mg/kg) was adsorbed onto a calcium sulphate cylinder, which was then replaced into the sterile container.
The operative field was prepared by shaving with clippers, disinfected with povidone iodine 4% w/v in 70% alcohol. The right tibia was exposed sub-periosteally along its length and four 3 mm Orthofix pins inserted. An M-100 monolateral external fixator (Orthofix S.L.R) was applied. A 10 mm piece of mid-diaphyseal tibia was removed using an oscillating saw, along with the central 10 mm of periosteum. A calcium sulphate cylinder was then placed in the defect, and held by slight compression of the external fixator.
The animals were randomised such that at the time of surgery, 24 animals had Osteoset cylinders with saline adsorbed inserted, 12 of whom were given saline-only infusions and 12 of whom were given 0.1 mg/kg zoledronic acid infusion at the time of surgery and again on day 14. A further 12 animals had Osteoset cylinders with 0.15 ml of zoledronic acid (0.05 mg/kg) adsorbed inserted, and given a saline only infusion. Note that in the third leg the zoledronic acid was administered to the site via the cylinder, and not directly.
Animals were culled at 28 days (18 animals) and at 42 days (18 animals) with IV pentobarbitone 150 mg/kg.
[…]. CT scans were performed at 28 days (18 animals) and at 42 days (18 animals) using a Stratec XCT Research SA pQCT scanner.

[1] abbreviates: IV ZA 0.1 mg/kg at surgery and day 14.
[2] abbreviates: Local ZA 0.05 mg/kg adsorbed on cylinder.

For `O=P(O)(O)C(O)(Cn1ccnc1)P(=O)(O)O` [ZA, 1-hydroxy-2-[(1H-imidazol-1-yl)ethylidine]bisphosphonic acid], the “Bone area increase over controls” value is recorded as 131% (4 weeks, IV ZA group) and 216% (4 weeks, Local ZA group). Also, the “Polar moment of inertia increase over controls” value reads like this: (4 weeks, IV ZA group) 104%; (4 weeks, Local ZA group) 316%; (six weeks, Local ZA group) 40%. Besides, the BMC is, setting by setting: under setting [1], 45.9 (20.7) mg/mm; under setting [2], 45.0 (5.4) mg/mm. The BMD by setting is: under setting [1], 784.6 (97.7) mg/cm^3; under setting [2], 676.2 (49.3) mg/cm^3. Further, the “Polar Moment” value under setting [1] is given as 442.8 (585.2) mm^4 and the “Polar Moment” value under setting [2] is reported as 1343.1 (254.7) mm^4. The “Total Bone Area” value reads like this: (IV ZA 0.1 mg/kg infusion at surgery and day 14) 58.0 (23.2) mm^2; (Local ZA 0.05 mg/kg adsorbed on calcium sulphate cylinder) 66.6 (7.9) mm^2. The “Cross sectional area increase over controls” value (six weeks, local bisphosphonate group, not significant) was 20%.

The record behind these values is US20040157798A1, “Drug for use in bone grafting” (priority 2001, published 2004).
